“Also recorded” adds a separate entry of the source. Like-named read-outs stand apart in the source and are kept apart here.
Tests used:
[1] = system: chronic tension-type headache; conditions: prophylactic; cited from earlier work
[2] = system: chronic tension-type headache; assay: Prophylactic treatment with reboxetine in patients with chronic tension-type headache (headache diary); type: in vivo, human
From the text: Prophylactic treatment with reboxetine has been given to 10 patients with chronic tension-type headache treated at the outpatient headache clinic at the Department of Neurology, Glostrup Hospital, University of Copenhagen, Denmark. There were 5 women and 5 men with a mean age of 44 years. All patients had been suffering from chronic tension-type headache for several years, and had been treatment resistant to other headache prophylactics. Before treatment, the patents underwent a general and a neurological examination and completed a diagnostic headache diary during a four-week run-in period.
The patients filled in a headache diary before and during treatment recording headache characteristics, accompanying symptoms and intake of analgesics.
In total, 10 patents have been treated with reboxetne (as the methanesulphonate salt). […] The patents were instructed to take the tablet two to three hours before bedtime. Four patients stopped treatment within the first 4 weeks due to side effects. […] Efficacy was estimated to be very good in 66% of the patients that fulfilled the treatment series.

[3] = patients with chronic tension-type headache, 4 mg to 8 mg once daily, headache diary

For `CN(C)CCC=C1c2ccccc2CCc2ccccc21` [Amitriptyline], the reduces headache [1] is given as 30% and the side effects [1] is given as “many side effects, such as sedation and dryness of mouth”.
With `CCOc1ccccc1OC(c1ccccc1)C1CNCCO1` (stereo not drawn) [reboxetne, 2-[α-(2-ethoxy)-phenoxy-benzyl]morpholine] the “Efficacy estimated to be very good, share of the patients that fulfilled the treatment series” value ([2]; 6 patients that completed the treatment series) was 66%, the side effects ([2]; 10 patients treated, 4 mg to 8 mg once daily) was “Sleeping problems and dizziness were the most common side effect; also recorded: No serious side effects were reported” and the “reduction in consumption of analgesics” value [2, 3] was 55%. For the same compound, the reduction in intensity [2, 3] was 78%, the “reduction of AUC (intensity×duration)” value [2, 3] was 47% and the Headache frequency reduced ([2]; patients with chronic tension-type headache, initial dose 4 mg once daily, final dose 8 mg once daily, headache diary before vs during treatment) was 10%. For the same compound, the “patients that stopped treatment due to side effects” value ([2]; within the first 4 weeks, 10 patients treated) was “Four”.

From patent publication US20040048860A1, “Use of selective noradrenaline reuptake inhibitors for the treatment of tension-type headache” (priority 2000, published 2004)
